Data published in PMC8213057, “Targeting ALK2: An Open Science Approach to Developing Therapeutics for the Treatment of Diffuse Intrinsic Pontine Glioma” (Journal of Medicinal Chemistry, 2020).
Where “and” joins values, the source holds several entries; their conditions need not be identical. Identical values can stand only once.

Tests used:
CLK3 = CLK3 (Homo sapiens, UniProt P49761); settings: 1 μM; Run 1, Run 2
ERBB4/HER4 = ERBB4/HER4 (Homo sapiens, UniProt Q15303); settings: 1 μM; Run 1, Run 2
IR = IR (Homo sapiens, UniProt P06213); settings: 1 μM; Run 1, Run 2
MSK1/RPS6KA5 = MSK1/RPS6KA5 (Homo sapiens, UniProt O75582); settings: 1 μM; Run 1, Run 2
PKCb1 = PKCb1 (Homo sapiens, UniProt P05771); settings: 1 μM; Run 1, Run 2
PLK1 = PLK1 (Homo sapiens, UniProt P53350); settings: 1 μM; Run 1, Run 2
RAF1 = RAF1 (Homo sapiens, UniProt P04049); settings: 1 μM; Run 1, Run 2
STK39/STLK3 [1] = biological target: T1, STK39/STLK3 (Homo sapiens, UniProt Q9UEW8); settings: 1 μM; Run 1, Run 2
AKT3 = AKT3 (Homo sapiens, UniProt Q9Y243); assay: biochemical; settings: read-out: % enzyme activity, 1 μM; Run 1, Run 2
CAMK1a = CAMK1a (Homo sapiens, UniProt Q14012); assay: biochemical; settings: read-out: % enzyme activity, 1 μM; Run 1, Run 2
JAK1 = JAK1 (Homo sapiens, UniProt P23458); assay: biochemical; settings: read-out: % enzyme activity, 1 μM; Run 1, Run 2
LIMK2 = LIMK2 (Homo sapiens, UniProt P53671); assay: biochemical; settings: read-out: % enzyme activity, 1 μM; Run 1, Run 2
MKK6 = biological target: T2, MKK6 (Homo sapiens, UniProt P52564); assay: biochemical; settings: read-out: % enzyme activity, 1 μM; Run 1, Run 2
T2 sequence (P52564 1-334): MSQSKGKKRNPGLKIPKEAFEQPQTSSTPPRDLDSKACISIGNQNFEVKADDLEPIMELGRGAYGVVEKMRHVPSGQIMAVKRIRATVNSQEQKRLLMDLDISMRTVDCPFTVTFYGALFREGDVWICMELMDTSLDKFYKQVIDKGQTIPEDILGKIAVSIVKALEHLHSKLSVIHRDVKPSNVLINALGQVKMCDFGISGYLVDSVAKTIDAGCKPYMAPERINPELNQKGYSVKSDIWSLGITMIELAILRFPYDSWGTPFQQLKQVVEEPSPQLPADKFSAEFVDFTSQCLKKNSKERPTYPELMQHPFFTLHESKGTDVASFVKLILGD

NEK1 = biological target: T3, NEK1 (Homo sapiens, UniProt Q96PY6); assay: biochemical; settings: read-out: % enzyme activity, 1 μM; Run 1, Run 2
T3 sequence (Q96PY6 1-1258): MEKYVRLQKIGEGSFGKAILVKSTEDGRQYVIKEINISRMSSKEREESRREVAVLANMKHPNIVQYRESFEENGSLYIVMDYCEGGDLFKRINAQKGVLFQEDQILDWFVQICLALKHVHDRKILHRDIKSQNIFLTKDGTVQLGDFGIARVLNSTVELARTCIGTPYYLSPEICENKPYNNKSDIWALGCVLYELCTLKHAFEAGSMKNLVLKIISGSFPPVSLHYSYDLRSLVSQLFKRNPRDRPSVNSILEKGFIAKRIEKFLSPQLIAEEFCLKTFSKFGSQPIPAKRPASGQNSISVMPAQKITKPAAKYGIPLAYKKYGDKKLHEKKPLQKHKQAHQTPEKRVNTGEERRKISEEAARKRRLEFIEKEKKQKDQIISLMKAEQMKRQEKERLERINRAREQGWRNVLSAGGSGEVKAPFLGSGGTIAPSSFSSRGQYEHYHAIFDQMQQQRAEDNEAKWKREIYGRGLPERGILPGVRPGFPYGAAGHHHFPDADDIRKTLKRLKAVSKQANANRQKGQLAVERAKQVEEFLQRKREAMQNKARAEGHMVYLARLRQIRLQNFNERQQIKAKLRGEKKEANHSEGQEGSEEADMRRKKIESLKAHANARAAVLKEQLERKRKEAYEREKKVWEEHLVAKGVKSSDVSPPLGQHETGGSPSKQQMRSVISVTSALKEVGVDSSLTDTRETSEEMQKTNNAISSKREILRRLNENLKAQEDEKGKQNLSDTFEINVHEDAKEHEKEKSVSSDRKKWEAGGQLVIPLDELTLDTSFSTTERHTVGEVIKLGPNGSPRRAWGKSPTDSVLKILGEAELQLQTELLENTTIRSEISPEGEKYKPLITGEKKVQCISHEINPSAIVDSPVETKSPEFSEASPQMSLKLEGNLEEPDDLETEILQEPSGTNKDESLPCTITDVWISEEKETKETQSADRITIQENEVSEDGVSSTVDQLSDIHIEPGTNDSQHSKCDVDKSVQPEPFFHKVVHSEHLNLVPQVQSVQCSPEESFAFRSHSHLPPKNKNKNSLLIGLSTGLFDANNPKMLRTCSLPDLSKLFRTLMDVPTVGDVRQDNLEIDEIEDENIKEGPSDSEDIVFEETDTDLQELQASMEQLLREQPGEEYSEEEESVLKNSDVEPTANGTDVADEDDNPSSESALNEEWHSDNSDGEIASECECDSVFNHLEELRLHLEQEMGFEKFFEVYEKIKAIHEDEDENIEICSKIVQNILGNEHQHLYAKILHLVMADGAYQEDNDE

PIM1 = PIM1 (Homo sapiens, UniProt P11309); assay: biochemical; settings: read-out: % enzyme activity, 1 μM; Run 1, Run 2
PKCb2 = PKCb2 (Homo sapiens, UniProt P05771); assay: biochemical; settings: read-out: % enzyme activity, 1 μM; Run 1, Run 2
PKCg = PKCg (Homo sapiens, UniProt P05129); assay: biochemical; settings: read-out: % enzyme activity, 1 μM; Run 1, Run 2
RON/MST1R = RON/MST1R (Homo sapiens, UniProt Q04912); assay: biochemical; settings: read-out: % enzyme activity, 1 μM; Run 1, Run 2
RSK1 = RSK1 (Homo sapiens, UniProt Q15418); assay: biochemical; settings: read-out: % enzyme activity, 1 μM; Run 1, Run 2
STK39/STLK3 [2] = biological target: T1, STK39/STLK3; assay: biochemical; settings: read-out: % enzyme activity, 1 μM; Run 1, Run 2
VRK2 = VRK2 (Homo sapiens, UniProt Q86Y07); assay: biochemical; settings: read-out: % enzyme activity, 1 μM; Run 1, Run 2

Chain of PKCb1 (P05771 whole entry): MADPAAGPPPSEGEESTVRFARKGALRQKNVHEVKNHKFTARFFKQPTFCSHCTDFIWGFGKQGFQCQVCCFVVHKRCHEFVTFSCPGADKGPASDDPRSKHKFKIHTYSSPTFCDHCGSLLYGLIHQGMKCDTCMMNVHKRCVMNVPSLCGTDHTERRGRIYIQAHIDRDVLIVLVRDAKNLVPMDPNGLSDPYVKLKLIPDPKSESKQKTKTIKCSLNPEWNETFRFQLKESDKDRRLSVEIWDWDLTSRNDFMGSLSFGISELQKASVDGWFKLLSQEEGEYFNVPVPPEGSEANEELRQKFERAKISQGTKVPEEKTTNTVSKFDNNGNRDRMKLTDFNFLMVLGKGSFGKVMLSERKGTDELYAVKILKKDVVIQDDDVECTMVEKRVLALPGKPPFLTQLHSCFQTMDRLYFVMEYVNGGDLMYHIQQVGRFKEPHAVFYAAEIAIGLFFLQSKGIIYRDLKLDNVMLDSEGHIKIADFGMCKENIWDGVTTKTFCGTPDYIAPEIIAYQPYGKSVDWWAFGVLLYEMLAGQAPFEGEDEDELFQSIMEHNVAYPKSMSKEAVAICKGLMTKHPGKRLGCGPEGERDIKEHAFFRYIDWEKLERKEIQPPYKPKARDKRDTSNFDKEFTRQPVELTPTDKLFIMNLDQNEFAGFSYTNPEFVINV
Chain of LIMK2 (P53671 whole entry): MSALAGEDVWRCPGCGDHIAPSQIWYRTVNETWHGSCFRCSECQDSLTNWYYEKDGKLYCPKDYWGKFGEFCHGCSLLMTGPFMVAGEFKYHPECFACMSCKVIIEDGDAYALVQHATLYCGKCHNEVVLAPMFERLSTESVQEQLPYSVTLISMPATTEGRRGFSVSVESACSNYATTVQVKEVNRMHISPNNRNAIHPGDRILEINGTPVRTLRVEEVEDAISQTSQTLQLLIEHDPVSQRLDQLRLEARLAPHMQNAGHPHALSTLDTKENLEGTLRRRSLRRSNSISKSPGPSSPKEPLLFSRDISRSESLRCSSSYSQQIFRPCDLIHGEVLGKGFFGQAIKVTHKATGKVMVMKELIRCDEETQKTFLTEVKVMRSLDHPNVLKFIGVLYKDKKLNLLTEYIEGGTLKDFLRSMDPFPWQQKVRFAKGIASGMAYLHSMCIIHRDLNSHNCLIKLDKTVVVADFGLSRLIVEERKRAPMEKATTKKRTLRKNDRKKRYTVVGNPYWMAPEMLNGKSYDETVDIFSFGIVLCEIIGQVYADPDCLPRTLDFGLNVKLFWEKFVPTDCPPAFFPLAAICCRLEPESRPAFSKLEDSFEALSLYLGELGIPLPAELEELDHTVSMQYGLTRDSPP
Chain of PIM1 (P11309 whole entry): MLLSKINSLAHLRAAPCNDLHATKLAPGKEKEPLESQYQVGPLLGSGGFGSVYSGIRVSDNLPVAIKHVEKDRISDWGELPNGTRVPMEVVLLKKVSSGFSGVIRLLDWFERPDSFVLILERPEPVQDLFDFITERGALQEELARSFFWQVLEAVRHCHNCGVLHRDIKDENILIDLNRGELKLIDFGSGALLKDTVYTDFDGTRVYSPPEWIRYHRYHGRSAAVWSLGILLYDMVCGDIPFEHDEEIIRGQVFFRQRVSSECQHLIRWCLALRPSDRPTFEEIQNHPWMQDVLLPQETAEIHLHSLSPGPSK
Chain of IR (P06213 28-1382): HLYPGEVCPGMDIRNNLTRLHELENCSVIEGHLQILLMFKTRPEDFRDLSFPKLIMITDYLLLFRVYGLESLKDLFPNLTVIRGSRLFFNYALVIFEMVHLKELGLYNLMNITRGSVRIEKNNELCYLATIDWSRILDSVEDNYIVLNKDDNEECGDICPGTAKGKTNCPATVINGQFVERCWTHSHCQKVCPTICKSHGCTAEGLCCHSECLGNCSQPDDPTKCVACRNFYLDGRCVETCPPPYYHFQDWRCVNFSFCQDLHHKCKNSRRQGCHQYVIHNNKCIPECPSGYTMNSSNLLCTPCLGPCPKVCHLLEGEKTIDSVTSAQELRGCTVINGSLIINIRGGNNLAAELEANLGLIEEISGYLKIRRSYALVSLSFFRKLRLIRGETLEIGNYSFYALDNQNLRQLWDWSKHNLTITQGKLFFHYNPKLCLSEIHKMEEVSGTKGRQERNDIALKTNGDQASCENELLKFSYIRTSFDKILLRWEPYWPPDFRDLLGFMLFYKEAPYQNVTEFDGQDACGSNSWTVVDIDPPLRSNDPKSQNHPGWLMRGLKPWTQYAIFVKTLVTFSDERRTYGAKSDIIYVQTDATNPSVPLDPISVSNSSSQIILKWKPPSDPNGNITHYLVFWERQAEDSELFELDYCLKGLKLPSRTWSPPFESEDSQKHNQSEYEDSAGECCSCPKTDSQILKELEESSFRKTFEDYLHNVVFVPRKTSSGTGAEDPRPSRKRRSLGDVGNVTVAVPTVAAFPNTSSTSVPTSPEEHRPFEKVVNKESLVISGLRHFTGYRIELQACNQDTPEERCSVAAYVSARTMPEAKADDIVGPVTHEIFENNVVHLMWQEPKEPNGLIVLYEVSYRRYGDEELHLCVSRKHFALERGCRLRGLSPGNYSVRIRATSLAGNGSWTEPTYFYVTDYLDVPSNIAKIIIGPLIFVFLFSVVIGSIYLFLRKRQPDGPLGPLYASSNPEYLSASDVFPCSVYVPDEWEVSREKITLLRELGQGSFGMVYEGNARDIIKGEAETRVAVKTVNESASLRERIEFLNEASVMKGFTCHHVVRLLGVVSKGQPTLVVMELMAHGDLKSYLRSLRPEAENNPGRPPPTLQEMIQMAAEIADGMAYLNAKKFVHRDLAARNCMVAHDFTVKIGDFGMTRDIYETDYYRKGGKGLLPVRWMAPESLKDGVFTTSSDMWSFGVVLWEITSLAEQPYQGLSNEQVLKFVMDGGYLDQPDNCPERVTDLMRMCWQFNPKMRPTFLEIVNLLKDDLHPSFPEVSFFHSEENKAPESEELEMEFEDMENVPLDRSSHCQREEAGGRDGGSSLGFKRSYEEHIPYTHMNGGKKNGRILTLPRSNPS
Chain of RAF1 (P04049 whole entry): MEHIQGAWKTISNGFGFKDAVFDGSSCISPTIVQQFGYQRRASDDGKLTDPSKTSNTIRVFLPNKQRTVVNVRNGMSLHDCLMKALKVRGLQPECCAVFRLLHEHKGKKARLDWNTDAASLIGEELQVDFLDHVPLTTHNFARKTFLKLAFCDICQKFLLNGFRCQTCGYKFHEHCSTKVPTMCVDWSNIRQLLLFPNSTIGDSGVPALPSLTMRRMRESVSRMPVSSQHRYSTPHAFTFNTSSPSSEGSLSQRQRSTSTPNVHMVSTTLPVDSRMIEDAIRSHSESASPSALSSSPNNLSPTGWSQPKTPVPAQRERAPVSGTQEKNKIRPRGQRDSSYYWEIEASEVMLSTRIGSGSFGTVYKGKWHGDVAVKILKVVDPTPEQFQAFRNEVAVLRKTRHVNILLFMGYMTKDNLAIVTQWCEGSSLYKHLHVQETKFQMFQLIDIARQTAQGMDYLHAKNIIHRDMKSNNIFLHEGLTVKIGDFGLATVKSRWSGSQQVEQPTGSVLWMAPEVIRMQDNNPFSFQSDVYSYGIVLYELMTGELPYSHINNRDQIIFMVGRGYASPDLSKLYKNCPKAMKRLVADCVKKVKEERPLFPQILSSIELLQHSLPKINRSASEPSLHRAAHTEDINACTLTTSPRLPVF
Chain of MSK1/RPS6KA5 (O75582 whole entry): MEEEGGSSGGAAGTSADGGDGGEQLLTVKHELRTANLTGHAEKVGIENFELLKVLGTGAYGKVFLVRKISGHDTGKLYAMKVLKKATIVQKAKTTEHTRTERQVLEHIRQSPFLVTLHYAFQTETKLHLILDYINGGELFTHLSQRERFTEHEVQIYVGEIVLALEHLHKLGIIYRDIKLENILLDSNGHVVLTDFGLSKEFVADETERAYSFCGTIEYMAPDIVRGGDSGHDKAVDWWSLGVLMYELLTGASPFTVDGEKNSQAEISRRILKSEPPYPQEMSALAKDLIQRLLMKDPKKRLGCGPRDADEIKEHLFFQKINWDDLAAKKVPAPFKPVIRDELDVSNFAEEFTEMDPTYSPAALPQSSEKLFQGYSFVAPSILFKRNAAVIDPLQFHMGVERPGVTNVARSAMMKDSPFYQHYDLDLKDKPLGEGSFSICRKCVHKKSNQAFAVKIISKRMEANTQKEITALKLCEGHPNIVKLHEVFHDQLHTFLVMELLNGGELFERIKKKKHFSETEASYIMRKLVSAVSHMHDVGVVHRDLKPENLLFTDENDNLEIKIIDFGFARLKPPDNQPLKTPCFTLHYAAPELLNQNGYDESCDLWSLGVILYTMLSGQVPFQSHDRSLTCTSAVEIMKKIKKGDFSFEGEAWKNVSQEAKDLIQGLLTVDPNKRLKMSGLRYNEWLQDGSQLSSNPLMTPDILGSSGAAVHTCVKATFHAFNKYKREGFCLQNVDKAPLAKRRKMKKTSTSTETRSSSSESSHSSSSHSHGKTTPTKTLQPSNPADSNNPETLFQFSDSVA
Chain of PLK1 (P53350 whole entry): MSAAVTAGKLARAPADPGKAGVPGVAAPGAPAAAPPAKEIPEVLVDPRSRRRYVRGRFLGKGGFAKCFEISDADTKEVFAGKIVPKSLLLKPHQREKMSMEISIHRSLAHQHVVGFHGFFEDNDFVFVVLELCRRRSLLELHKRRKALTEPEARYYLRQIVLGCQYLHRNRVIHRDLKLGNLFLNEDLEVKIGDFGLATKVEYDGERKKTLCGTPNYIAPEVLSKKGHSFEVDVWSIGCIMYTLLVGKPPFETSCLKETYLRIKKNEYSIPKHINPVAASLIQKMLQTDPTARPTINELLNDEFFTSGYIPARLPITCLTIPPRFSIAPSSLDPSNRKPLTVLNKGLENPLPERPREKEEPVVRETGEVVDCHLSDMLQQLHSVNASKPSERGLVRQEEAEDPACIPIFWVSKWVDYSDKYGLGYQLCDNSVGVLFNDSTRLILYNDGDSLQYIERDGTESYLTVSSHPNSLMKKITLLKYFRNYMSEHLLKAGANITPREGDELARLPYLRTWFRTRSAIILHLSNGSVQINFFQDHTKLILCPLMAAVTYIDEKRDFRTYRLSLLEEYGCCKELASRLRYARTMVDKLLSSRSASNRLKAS

| Compound | % enzyme activity at 1 μM (ALK1/ACVRL1) | % enzyme activity (CLK3) [%] | % enzyme activity (ERBB4/HER4) [%] | % enzyme activity (IR) [%] | % enzyme activity (MSK1/RPS6KA5) [%] | % enzyme activity (PKCb1) [%] | % enzyme activity (PLK1) [%] | % enzyme activity (RAF1) [%] | % enzyme activity (STK39/STLK3 [1]) [%] | remaining activity at 1 µM (AKT3) [%] | remaining activity at 1 µM (CAMK1a) [%] | remaining activity at 1 µM (JAK1) [%] | remaining activity at 1 µM (LIMK2) [%] | remaining activity at 1 µM (MKK6) [%] | remaining activity at 1 µM (NEK1) [%] | remaining activity at 1 µM (PIM1) [%] | remaining activity at 1 µM (PKCb2) [%] | remaining activity at 1 µM (PKCg) [%] | remaining activity at 1 µM (RON/MST1R) [%] | remaining activity at 1 µM (RSK1) [%] | also measured |
| --- | --- | --- | --- | --- | --- | --- | --- | --- | --- | --- | --- | --- | --- | --- | --- | --- | --- | --- | --- | --- | --- |
| COc1cc(-c2cncc(-c3ccc(N4C[C@@H](C)N(C)[C@@H](C)C4)cc3)c2C)cc(F)c1C(N)=O [Compound 26c, 2-Fluoro-6-methoxy-4-(4-methyl-5-(4-((3R,5S)-3,4,5-trimethylpiperazin-1-yl)phenyl)pyridin-3-yl)benzamide] | 4.67% and 4.38% | 86.89 | 93.88 | 97.15 | 89.44 | 83.58 | 92.70 | 83.85 | 93.62 | 98.7 | 97.5 | 101 | 97.8 | 79.7 | 88.1 | 95.2 | 99.1 | 97.2 | 105 | 102 | remaining activity at 1 µM (STK39/STLK3 [2]): 95.7%; remaining activity at 1 µM (VRK2): 92.5% |
| COc1cc(-c2cncc(-c3ccc(N4CCN(C)CC4)cc3)c2C)cc(F)c1C(N)=O [Compound 26a, 2-Fluoro-6-methoxy-4-(4-methyl-5-(4-(4-methylpiperazin-1-yl)phenyl)pyridin-3-yl)benzamide] | 2.65% | 99.59 | 99.40 | 100.44 | 82.15 | 82.63 | 91.24 | 78.57 | 88.76 | 95 | 94.9 | 102 | 102 | 84.4 | 87.6 | 100 | 107 | 97 | 98.7 | 98.9 | remaining activity at 1 µM (STK39/STLK3 [2]): 89.1%; remaining activity at 1 µM (VRK2): 89.1% |
